Results reported in patent US6420423B1 (priority 1995, dated 2002).

Key:
Phytophthora infestans = type: in vivo; settings: 20 ppm of the active substance; test a) or b) not distinguished
Plasmopara viticola = settings: 20 ppm of the active substance, vines

## CCC(C)Oc1ccc(C(=NOC)C(C)=NOCc2ccccc2C(=NOC)C(=O)OC)c(F)c1 (stereo not drawn) [Compound 2.55]
Phytophthora infestans
  suppression of infestation: completely suppressed
Plasmopara viticola
  curative action: complete curative action

## COC=C(C(=O)OC)c1ccccc1CON=C(C)C(=NOCC=C(Cl)Cl)c1ccc(OC)cc1 [Compound 4.3]
Phytophthora infestans
  suppression of infestation: completely suppressed
Plasmopara viticola
  curative action: complete curative action

## CCCOc1ccc(C(=NOC)C(C)=NOCc2ccccc2C(=NOC)C(=O)NC)c(F)c1 [Compound 3.46, 2-Methoxyimino-2-(2-{2-methoxyimino-1-methyl-2-[2-fluoro-4-n-propoxy-phenyl]-ethylideneaminooxymethyl}-phenyl)-N-methyl-acetamide]
Plasmopara viticola
  curative action: complete curative action

## CON=C(C(C)=NOCc1ccccc1C(=NOC)C(=O)OC)c1ccc(Oc2cccc(Br)c2)cc1 [Compound 2.25]
Plasmopara viticola
  curative action: complete curative action

## CCC(C)Oc1ccc(C(=NOC)C(C)=NOCc2ccccc2C(=NOC)C(=O)NC)c(F)c1 (stereo not drawn) [Compound 3.56]
Phytophthora infestans
  suppression of infestation: completely suppressed
Plasmopara viticola
  curative action: complete curative action

## CON=C(C(C)=NOCc1ccccc1C(=NOC)C(=O)OC)c1ccc(OCC(C)C)cc1 [Compound 2.22]
Plasmopara viticola
  curative action: complete curative action

## COC=C(C(=O)OC)c1ccccc1CON=C(C)C(=NOC)c1ccc(OC(C)C)cc1F (single isomer, unassigned) [Compound 1.73A]
Plasmopara viticola
  curative action: complete curative action

## CON=C(C(C)=NOCc1ccccc1C(=NOC)C(=O)OC)c1ccc(OC)cc1C [Compound 2.58]
Phytophthora infestans
  suppression of infestation: completely suppressed
Plasmopara viticola
  curative action: complete curative action

## COC=C(C(=O)OC)c1ccccc1CON=C(C)C(=NOC)c1ccc(OCC2CC2(Cl)Cl)c(Cl)c1 (single isomer, unassigned) [Compound 1.20]
Phytophthora infestans
  suppression of infestation: completely suppressed

## CON=C(C(C)=NOCc1ccccc1C(=NOC)C(=O)OC)c1cccc(Oc2cccc(F)c2)c1 [Compound 2.32]
Phytophthora infestans
  suppression of infestation: completely suppressed

## CCCOc1ccc(C(=NOCC)C(C)=NOCc2ccccc2C(=NOC)C(=O)OC)cc1 [Compound 4.58]
Plasmopara viticola
  curative action: complete curative action

## COC=C(C(=O)OC)c1ccccc1CON=C(C)C(=NOC)c1ccc(OC)cc1C (single isomer, unassigned) [Compound 1.78]
Plasmopara viticola
  curative action: complete curative action

## CON=C(C(C)=NOCc1ccccc1C(=NOC)C(=O)OC)c1ccc(OC[Si](C)(C)C)cc1 [Compound 2.33]
Plasmopara viticola
  curative action: complete curative action

## COC=C(C(=O)OC)c1ccccc1CON=C(C)C(=NOC)c1ccc(OCC2CC2(Cl)Cl)c(F)c1 (stereo not drawn) [Compound 1.3, (2-{2-[4-(2,2-Dichloro-cyclopropylmethoxy)-3-fluoro-phenyl]-2-methoxyimino-1-methyl-ethylideneaminooxymethyl}phenyl)-3-methoxy-acrylic acid methyl ester]
Phytophthora infestans
  suppression of infestation: completely suppressed
Plasmopara viticola
  curative action: complete curative action

## CCC(C)Oc1ccc(C(=NOC)C(C)=NOCc2ccccc2C(=COC)C(=O)OC)cc1 (single isomer, unassigned) [Compound 1.29]
Plasmopara viticola
  curative action: complete curative action

## C#CCON=C(C(C)=NOCc1ccccc1C(=NOC)C(=O)NC)c1ccc(OCCC)cc1 [Compound 4.65]
Plasmopara viticola
  curative action: complete curative action

## CCCOc1ccc(C(=NOCC)C(C)=NOCc2ccccc2C(=COC)C(=O)OC)cc1 [Compound 4.57]
Phytophthora infestans
  suppression of infestation: completely suppressed
Plasmopara viticola
  curative action: complete curative action

## COC=C(C(=O)OC)c1ccccc1CON=C(C)C(=NOC)c1ccc(OCC2CC2(Cl)Cl)c(F)c1 (single isomer, unassigned) [Compound 1.4]
Phytophthora infestans
  suppression of infestation: completely suppressed
Plasmopara viticola
  curative action: complete curative action

## CCCCOc1ccc(C(=NOC)C(C)=NOCc2ccccc2C(=COC)C(=O)OC)c(F)c1 (single isomer, unassigned) [Compound 1.71B]
Plasmopara viticola
  curative action: complete curative action

## CCCOc1ccc(C(=NOC)C(C)=NOCc2ccccc2C(=NOC)C(=O)OC)c(F)c1 [Compound 2.45, 2-Methoxyimino-(2-{2-methoxyimino-1-methyl-2-[2-fluoro-4-n-propoxy-phenyl]-ethylideneaminooxymethyl}-phenyl)-acetic acid methyl ester]
Plasmopara viticola
  curative action: complete curative action

## CCCOc1ccc(C(=NOC)C(C)=NOCc2ccccc2C(=COC)C(=O)OC)c(F)c1 (single isomer, unassigned) [Compound 1.63B]
Plasmopara viticola
  curative action: complete curative action

## COC=C(C(=O)OC)c1ccccc1CON=C(C)C(=NOC)c1cc(F)c(OCC2CC2(Cl)Cl)cc1F (stereo not drawn) [Compound 1.13, (2-{2-[4-(2,2-Dichloro-cyclopropylmethoxy)-2,5-difluoro-phenyl]-2-methoxyimino-1-methyl-ethylideneaminooxymethyl}-phenyl)-3-methoxy-acrylic acid methyl ester]
Phytophthora infestans
  suppression of infestation: completely suppressed
Plasmopara viticola
  curative action: complete curative action

## CCCON=C(C(C)=NOCc1ccccc1C(=COC)C(=O)OC)c1ccc(OCCC)cc1 [Compound 4.60]
Phytophthora infestans
  suppression of infestation: completely suppressed
Plasmopara viticola
  curative action: complete curative action

## COC=C(C(=O)OC)c1ccccc1CON=C(C)C(=NOC)c1ccc(OCC2CC2(Cl)Cl)c(Cl)c1 (single isomer, unassigned) [Compound 1.19]
Phytophthora infestans
  suppression of infestation: completely suppressed

## CCCCOc1ccc(C(=NOC)C(C)=NOCc2ccccc2C(=COC)C(=O)OC)cc1 (mixture of isomers) [Compound 1.33]
Phytophthora infestans
  suppression of infestation: completely suppressed
Plasmopara viticola
  curative action: complete curative action

## CCOc1ccc(C(=NOC)C(C)=NOCc2ccccc2C(=NOC)C(=O)NC)c(C)c1 [Compound 3.60, 2-Methoxyimino-2-(2-{2-methoxyimino-1-methyl-2-[4-ethoxy-2-methyl-phenyl]-ethylideneaminooxymethyl}-phenyl)-N-methyl-acetamide]
Phytophthora infestans
  suppression of infestation: completely suppressed

## CCCCOc1ccc(C(=NOC)C(C)=NOCc2ccccc2C(=COC)C(=O)OC)c(F)c1 (single isomer, unassigned) [Compound 1.71A]
Plasmopara viticola
  curative action: complete curative action

## CCC(C)Oc1ccc(C(=NOC)C(C)=NOCc2ccccc2C(=COC)C(=O)OC)cc1 (single isomer, unassigned) [Compound 1.30]
Phytophthora infestans
  suppression of infestation: completely suppressed
Plasmopara viticola
  curative action: complete curative action

## CON=C(C(C)=NOCc1ccccc1C(=NOC)C(=O)OC)c1ccc(Oc2ccc(C)cc2)cc1 [Compound 2.27]
Phytophthora infestans
  suppression of infestation: completely suppressed
Plasmopara viticola
  curative action: complete curative action

## COC=C(C(=O)OC)c1ccccc1CON=C(C)C(=NOC)c1ccc(OC(C)C)cc1F (single isomer, unassigned) [Compound 1.73B]
Plasmopara viticola
  curative action: complete curative action

## COC=C(C(=O)OC)c1ccccc1CON=C(C)C(=NOC)c1cc(F)ccc1C (single isomer, unassigned) [Compound 1.52]
Plasmopara viticola
  curative action: complete curative action

## COC=C(C(=O)OC)c1ccccc1CON=C(C)C(=NOC)c1ccc(OCC(C)C)cc1 [Compound 1.31, {2-[2-(4-Isobutoxy-phenyl)-2-methoxyimino-1-methyl-ethylideneaminooxymethyl]-phenyl}-3-methoxy-acrylic acid methyl ester]
Phytophthora infestans
  suppression of infestation: completely suppressed
Plasmopara viticola
  curative action: complete curative action

## CCO/N=C(/C(C)=NOCc1ccccc1C(=NOC)C(=O)OC)c1ccc(OCc2cccc(C(F)(F)F)c2)cc1
other
  melting point: 68 to 70 °C

## CCC(C)Oc1ccc(C(=NOC)C(C)=NOCc2ccccc2C(=NOC)C(=O)OC)cc1 (stereo not drawn) [Compound 2.21]
Plasmopara viticola
  curative action: complete curative action

## CCC(C)Oc1ccc(C(=NOC)C(C)=NOCc2ccccc2C(=COC)C(=O)OC)c(F)c1 (single isomer, unassigned) [Compound 1.75A]
Phytophthora infestans
  suppression of infestation: completely suppressed

## CCC(C)Oc1ccc(C(=NOC)C(C)=NOCc2ccccc2C(=NOC)C(=O)NC)cc1 (stereo not drawn) [Compound 3.21]
Plasmopara viticola
  curative action: complete curative action

## CCOc1ccc(C(=NOC)C(C)=NOCc2ccccc2C(=NOC)C(=O)OC)c(F)c1 [Compound 2.49, 2-Methoxyimino-(2-{2-methoxyimino-1-methyl-2-[2-fluoro-4-ethoxy-phenyl]-ethylideneaminooxymethyl}-phenyl)-acetic acid methyl ester]
Plasmopara viticola
  curative action: complete curative action

## CNC(=O)C(=NOC)c1ccccc1CON=C(C)C(=NOC)c1ccc(OCC(F)(F)F)cc1 [Compound 3.43]
Plasmopara viticola
  curative action: complete curative action
